Experimental data as given in US20150018380A1, “Methods of Screening for Activation Deaminase Inhibitors Through Nuclear Import Inhibitors” (University of Rochester, priority 2012, published 2015).
“Also recorded” adds a separate entry of the source. Read-outs that look alike come from different tables or passages of the source.

Tests used:
AID = target: T1, AID (Homo sapiens, UniProt Q9GZX7); experiment: AID-EGFP-HeLa HCS assay LOPAC screen for inhibitors of AID nuclear import; type: cell-based
T1 construct: expressed in transfected cells; host or cells: HeLa S3 (lentiviral transduction, pLVTHM, EF1-alpha promoter)
Procedure: The LOPAC screen was performed using 20 μM of each compound in duplicate with a 3-hour incubation followed by LMB treatment.
Maximum values, set to 100% corresponds to conditions of DMSO treated cells. Minimum values, set approximately to 0%, corresponds to conditions of only 200 ng/mL LMB treatment.

glucocorticoid receptor = details: prior screen, cited from earlier work
ACF = experiment: LMB response in HEK293T cells transiently cotransfected with ACF-EGFP and mCherry-hnRNPA1: ACF; type: cell-based, human; details: LMB treatment; transiently transfected HEK293T
Source text: (§1) Wild type human ACF, hnRNP A1, and TALDO1 cDNAs are obtained from BlueHeron (NM_014576.2, NM_002136.2 and NM_006755.1) cDNAs for ACF and A1 were subcloned into pGEM3 and pIRES, respectively. Criteria used for transient transfection, validating protein expression and determining appropriate N/C ratio baselines are described elsewhere herein. Two counter screens for shuttling proteins, run in parallel enable the identification of AID-selective nuclear import inhibitors.
(§2) Data presented herein show images from HEK293T cells 24 hr after being transiently cotransfected with ACF-EGFP and mCherry-hnRNPA1. FIG. 5G through FIG. 5I show images from a 384-well plate for EGFP-ACF, mCherry-hnRNPA1 and two color composite respectively. […] ACF and hnRNP A1 are selected because they shuttle using different mechanism than AID and because their function in the cell differs markedly from one another and from AID and H1. ACF binds to RNA through RNP domains that comprise three separate and centrally located RNA Recognition Motifs (RRM), required for ACF's function as an editing site recognition cofactor for APOBEC1 mRNA editing activity in the cell nucleus (Hintersteiner et al., 2010, ACS Chem Biol, 5(10): 967-79). […] ACF nuclear import is determined by a unique amino acid motif centrally located and a Cterminal, CRM1-dependent nuclear export signal (Chahine et al., 2009, Pharmacol Rev, 61(3): 358-72).

CRM1 = CRM1 (Homo sapiens, UniProt O14980); details: cited from earlier work
AID-EGFP [1] = experiment: LMB response in HEK293T cells transiently co-transfected with AID-EGFP and mCherry-H1: AID; type: cell-based, human
Procedure: (§3) HEK293T cells in 40 μl were plated robotically into 384-well plates using a Multi-Drop (ThermoScientific) such that in 24 hours the cell density is approximately 60% confluency. EGFP-AID and mCherry-H1 plasmids were mixed at a 1:1 molar ratio in Turbofect reagent as per the manufacture's protocol (Fermentas) and dispensed from a trough into the 384-well HEK293T cell cultures with a Perkin Elmer Janus robot liquid handling system. Each well received 25 ng of total plasmid DNA and uniform dispersal of the transfection mixture was ensured by placing the plates on the Perkin Elmer plate mixer at the highest speed setting for 30 sec. Due to the small culture volume, there was no effect on cell attachment to the plates but was critical for uniform transfection. Ranges of both EGFP-AID: mCherry-H1 plasmid ratios and amount of total plasmid DNA required for transfection of cells in 384-well format were evaluated. For current plasmid stocks, a 1:1 plasmid ratio gave the most consistent expression of both proteins.
(§4) Co-expression of other counter screen proteins and their response to LMB was evaluated using co-transfected HEK293T cells. […]

TALDO1 = experiment: LMB response in 293T cells transiently co-transfected with AID-EGFP and mCherry-TALDO1: TALDO1; type: cell-based, human; details: LMB treatment; 293T co-transfected with AID-EGFP
Procedure: (§5) TALDO1 in pIRES was transiently co-transfected with AID-EGFP in 293T cells and fluorescence images taken 24 hours post-transfection. AID-EGFP was predominantly cytoplasmic while mCherry-TALDO1 was predominantly nuclear (FIG. 5P through FIG. 5R). […] It is concluded that co-expression of AID and TALDO1 is achievable and that the proteins have different N/C ratios even though they use the same importins.

AID-EGFP [2] = experiment: LMB / Ratjadone A response of AID-EGFP in stable HeLa AID-EGFP cells; type: cell-based, human; details: for AID-EGFP localization / nuclear retention: 100 ng/ml for 180 min
Source text: HCS assay development involves the selection of the most appropriate cellular model (Dudgeon et al., 2010, J. Biomol. Screen, 15: 766-782; Nickischer et al., 2006, Methods Enzymol, 414: 389-418; Williams et al., 2006, Methods Enzymol, 414: 364-89). In this regard, AID shuttling is not specific to B cells, making it possible to use a variety of cell types to study AID structure and function (Okazaki et al., 2002, Nature, 416: 340-5; Yoshikawa et al., 2002 Science, 296: 2033-6). However, the ability of LMB to induce quantitative AID nuclear retention was more uniform in HeLa cells (a finding has been independently confirmed by comparing the AID responses to LMB in transiently transfected HeLa, HEK293T, U2OS, A549, CaCo2, HepG2 and CHO cells). […] Consequently, AID-EGFP was subcloned from a pIRES vector into the lentiviral vector pLVTHM (Addgene) using the EF1-α promoter to drive moderate to low level expression. pLV-AID-EGFP psuedotyped virus was transduced into HeLa S3 cells (ATCC) that were live-cell flow sorted to obtain a homogenous population of fluorescent cells. Subcloning of a cell line was not thought to be necessary given the ability to threshold fluorescence in individual cells during high content screening. These cells have been maintained in culture with little or no loss of fluorescence for 2 months. HeLa AID-EGFP cells plated into 384-well plates at varying cell densities (1,250 to 10,000 cells per well) were simultaneously fixed with formaldehyde and counter stained with Hoechst and then imaged using both the IXU Ultra and ArrayScan VTI platforms with 10× and 20× objectives. Image quantification was performed with the multi-wavelength cell scoring (MWCS) & translocation enhanced (TE) image analysis modules and the molecular translocation (MT) image algorithm for the IXU Ultra and ArrayScan VTI, respectively. Based on image acquisition, 2,500 cells per well was determined ideal for either platform regardless of the objective. […] To establish the LMB response within the context of an HCS system and assess the assay parameters, cells were treated in 384-well format with varying doses (0.2 to 200 ng/ml) of either LMB or Ratjadone A (chemically related to LMB) for varying durations up to 200 min. […] There was a 4.5-fold difference between the nuclear to cytoplasmic (N/C) fluorescence ratio of LMB-treated cells and cells only treated with the solvent for LMB (0.5% methanol).
For the LOPAC high content screen (HCS), 2,500 AID-EGFP-HeLa cells were cultured per well on a 384-well plate. Cells were seeded and cultured overnight. Cells were exposed to 20 μM of test compound for 3 hours, followed by a 200 ng/mL LMB treatment for 3 hours. Experiments were run in duplicate. […]

hnRNP A1 = experiment: LMB response in HEK293T cells transiently cotransfected with ACF-EGFP and mCherry-hnRNPA1: hnRNP A1; type: cell-based, human; details: LMB treatment; transiently transfected HEK293T
Source text: as §1, §2

AID-EGFP [3] = experiment: LMB response in HeLa cell line stably expressing AID-EGFP and mCherry-TALDO1: AID; type: cell-based, human; details: LMB treatment; stable HeLa AID-EGFP/mCherry-TALDO1
Source text: (§6) A HeLa cell line stably expressing equivalent levels of AID-EGFP and mCherry-TALDO1 was established by transducing cells with a lentiviral vector encoding AID-EGFP. mCherry-TALDO1 was transfected/selected after the AID-EGFP line was sorted and selected. The cell line was then sorted for the co-expression of both proteins.
(§7) FIG. 23 depicts the expression of AID-EGFP and mCherry-TALDO1, as measured by flow cytometry (FIG. 23A) and western blot (FIG. 23B). […] FIG. 24 depicts the localization of AID-EGFP and mCherry-TALDO1 in control treated cells and LMB treated cells. […] This cell line is then used in a simultaneous primary/counter screen for compounds that selectively alter AID import, while not affecting TALDO1 localization.

AID-EGFP [4] = experiment: LMB response in 293T cells transiently co-transfected with AID-EGFP and mCherry-TALDO1: AID; type: cell-based, human; details: LMB treatment; 293T co-transfected with mCherry-TALDO1
Procedure: as §5

mCherry-TALDO1 = experiment: LMB response in HeLa cell line stably expressing AID-EGFP and mCherry-TALDO1: TALDO1; type: cell-based, human; details: LMB treatment; stable HeLa AID-EGFP/mCherry-TALDO1
Source text: as §6, §7

histone H1 = experiment: LMB response in HEK293T cells transiently co-transfected with AID-EGFP and mCherry-H1: H1; type: cell-based, human; details: LMB treatment
Procedure: as §3, §4

[5] = 20 μM compound for 3 hours, then 200 ng/mL LMB for 3 hours, AID-EGFP-HeLa cells, 2,500 cells/well, duplicate

T1 sequence (Q9GZX7 whole entry): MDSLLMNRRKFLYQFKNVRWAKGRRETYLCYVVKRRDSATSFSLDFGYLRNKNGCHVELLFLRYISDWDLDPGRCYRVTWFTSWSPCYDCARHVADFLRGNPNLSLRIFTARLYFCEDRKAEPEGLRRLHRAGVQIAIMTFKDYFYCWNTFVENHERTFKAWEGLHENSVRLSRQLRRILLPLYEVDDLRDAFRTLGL
Chain of CRM1 (O14980 whole entry): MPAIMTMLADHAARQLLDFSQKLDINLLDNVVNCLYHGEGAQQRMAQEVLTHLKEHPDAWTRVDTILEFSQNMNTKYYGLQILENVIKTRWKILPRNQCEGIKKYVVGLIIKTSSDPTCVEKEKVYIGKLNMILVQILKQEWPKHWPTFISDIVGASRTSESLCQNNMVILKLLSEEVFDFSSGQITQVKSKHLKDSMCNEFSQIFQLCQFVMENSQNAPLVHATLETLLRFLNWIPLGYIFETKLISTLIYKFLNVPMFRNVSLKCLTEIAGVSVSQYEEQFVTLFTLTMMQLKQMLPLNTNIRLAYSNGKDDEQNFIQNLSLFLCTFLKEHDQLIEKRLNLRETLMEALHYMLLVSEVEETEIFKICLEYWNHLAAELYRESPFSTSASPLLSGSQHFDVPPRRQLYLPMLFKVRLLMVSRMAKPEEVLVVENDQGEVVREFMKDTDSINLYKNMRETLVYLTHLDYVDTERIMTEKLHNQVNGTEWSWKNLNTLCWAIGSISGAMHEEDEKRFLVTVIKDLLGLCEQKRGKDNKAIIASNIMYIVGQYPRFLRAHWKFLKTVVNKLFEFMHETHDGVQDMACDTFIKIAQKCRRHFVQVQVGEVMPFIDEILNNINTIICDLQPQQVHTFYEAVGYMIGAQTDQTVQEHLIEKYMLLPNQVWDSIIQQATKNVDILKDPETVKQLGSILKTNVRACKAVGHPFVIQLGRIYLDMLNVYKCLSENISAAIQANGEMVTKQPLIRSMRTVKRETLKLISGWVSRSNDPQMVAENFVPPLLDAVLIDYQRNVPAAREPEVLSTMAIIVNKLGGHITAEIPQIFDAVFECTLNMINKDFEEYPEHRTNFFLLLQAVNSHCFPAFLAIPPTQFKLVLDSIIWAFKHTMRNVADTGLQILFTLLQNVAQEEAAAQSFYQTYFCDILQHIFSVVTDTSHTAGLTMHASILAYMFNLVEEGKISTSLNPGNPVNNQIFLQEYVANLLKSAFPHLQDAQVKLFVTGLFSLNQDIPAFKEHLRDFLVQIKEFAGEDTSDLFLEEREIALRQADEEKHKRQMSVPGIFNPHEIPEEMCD

CC(C)(C)c1ccc(S(=O)(=O)/C=C/C#N)cc1 [Bay 11-7085]
inhibition of AID nuclear import (AID; [5]): greater than 50%
nuclear import of the glucocorticoid receptor (glucocorticoid receptor): inhibit the nuclear import of the glucocorticoid receptor
nuclear import of the glucocorticoid receptor (glucocorticoid receptor; listed as SID 53777289): inhibited nuclear import of the glucocorticoid receptor

CCC(=C/[C@H](C)C/C=C/C(C)=C/[C@@H](C)C(=O)[C@@H](C)[C@H](O)[C@@H](C)C/C(C)=C/C(=O)O)/C=C/[C@@H]1OC(=O)C=C[C@@H]1C [LMB, Leptomycin B]
ACF localization (ACF): nuclear retention of ACF; also recorded: redistribution of ACF-EGFP
CRM1-mediated nuclear export of AID (CRM1): inhibited
AID-EGFP nuclear retention (AID-EGFP [1]; 50 ng/ml LMB for 90 min, transiently transfected HEK293T): increased retention in their nuclei; also recorded: selective redistribution of AID-EGFP
effect of increasing LMB above 50 ng/ml on EGFP-AID retained in the nucleus (AID-EGFP [1]; transient system, HEK293T): did not increase the amount of EGFP-AID retained in the nucleus
nuclear mCherry fluorescence due to TALDO1 (TALDO1): did not noticeably affect
AID-EGFP localization / nuclear retention (AID-EGFP [2]; HeLa AID-EGFP cells): maximal nuclear retention of AID-EGFP; also recorded: nuclear AID-EGFP localization
nuclear localization of AID-EGFP (AID-EGFP [2]; 200 ng/mL LMB for 3 hours, control AID-EGFP-HeLa cells without test compound): approximately 80%
difference in nuclear to cytoplasmic (N/C) fluorescence ratio versus solvent (0.5% methanol) treated cells (AID-EGFP [2]; HeLa AID-EGFP cells, 384-well): 4.5 fold
hnRNP A1 localization (hnRNP A1): does not respond
AID-EGFP localization (AID-EGFP [3]): shift localization from primarily cytoplasmic to primarily nuclear
AID-EGFP nuclear retention (AID-EGFP [4]): significant nuclear retention of AID-EGFP; also recorded: selective redistribution of AID-EGFP
mCherry-TALDO1 localization (mCherry-TALDO1): remained nuclear
histone H1 localization (histone H1): remained nuclear; also recorded: do not affect H1 nuclear localization

O=C1c2c(O)ccc(O)c2C(=O)c2c(NCCNCCO)ccc(NCCNCCO)c21 [Mitoxantrone]
inhibition at 20 µM (AID; [5]): > 50%

CN(C)S(=O)(=O)c1ccc2c(c1)/C(=C/c1cc3c([nH]1)CCCC3)C(=O)N2 [SU 6656]
inhibition at 20 µM (AID; [5]): > 50%

Cl.Cl.O=C1c2c(O)ccc(O)c2C(=O)c2c(NCCNCCO)ccc(NCCNCCO)c21 [M6545]
fluorescence interference (false positive hit) (AID; LOPAC screen, 20 μM): false positive autofluorescent

Ratjadone A
AID-EGFP localization / nuclear retention (AID-EGFP [2]; HeLa AID-EGFP cells): maximal nuclear retention of AID-EGFP; also recorded: nuclear AID-EGFP localization

Cc1c2ccncc2c(C)c2c1[nH]c1ccccc12 [Ellipticine]
inhibition at 20 µM (AID; [5]): > 50%
